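A five-concentration, 48-hour dose response in 96-well plates underlies each endpoint, interpolated linearly between surrounding concentrations. TGI denotes the concentration required for complete inhibition of growth.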
What was measured:
Test in all cases: NCI anticancer screen, dose series, 48 h
HOP-62 NSCLC = tested on: HOP-62 NSCLC
NCI/ADR-RES ovarian = tested on: NCI/ADR-RES ovarian
HCT-116 colon = tested on: HCT-116 colon
SN12C renal = tested on: SN12C renal
COLO 205 colon = tested on: COLO 205 colon
T-47D breast = tested on: T-47D breast
SK-MEL-2 melanoma = tested on: SK-MEL-2 melanoma
IGROV1 ovarian = tested on: IGROV1 ovarian
K-562 leukemia = tested on: K-562 leukemia
MDA-N = tested on: MDA-N
NCI-H522 lung = tested on: NCI-H522 lung
MDA-MB-435 = tested on: MDA-MB-435
SF-268 CNS = tested on: SF-268 CNS
TK-10 renal = tested on: TK-10 renal
HCT-15 colon = tested on: HCT-15 colon
RXF 393 renal = tested on: RXF 393 renal
OVCAR-3 ovarian = tested on: OVCAR-3 ovarian
NCI-H460 lung = tested on: NCI-H460 lung
UACC-257 melanoma = tested on: UACC-257 melanoma
PC-3 prostate = tested on: PC-3 prostate
SR leukemia = tested on: SR leukemia
A498 renal = tested on: A498 renal
SNB-75 CNS = tested on: SNB-75 CNS
HL-60(TB) leukemia = tested on: HL-60(TB) leukemia
UACC-62 melanoma = tested on: UACC-62 melanoma
LOX IMVI melanoma = tested on: LOX IMVI melanoma
SF-539 CNS = tested on: SF-539 CNS
SK-MEL-5 melanoma = tested on: SK-MEL-5 melanoma
786-0 renal = tested on: 786-0 renal
HT29 colon = tested on: HT29 colon
SW-620 colon = tested on: SW-620 colon
A549 NSCLC = tested on: A549 NSCLC
OVCAR-8 ovarian = tested on: OVCAR-8 ovarian
MDA-MB-231 breast = tested on: MDA-MB-231 breast
MCF7 breast = tested on: MCF7 breast
OVCAR-5 ovarian = tested on: OVCAR-5 ovarian
ACHN renal = tested on: ACHN renal
HOP-92 NSCLC = tested on: HOP-92 NSCLC
NCI-H23 lung = tested on: NCI-H23 lung
CAKI-1 renal = tested on: CAKI-1 renal
U251 CNS = tested on: U251 CNS
OVCAR-4 ovarian = tested on: OVCAR-4 ovarian
SNB-19 CNS = tested on: SNB-19 CNS
EKVX NSCLC = tested on: EKVX NSCLC
SK-OV-3 ovarian = tested on: SK-OV-3 ovarian
HS 578T breast = tested on: HS 578T breast
SF-295 CNS = tested on: SF-295 CNS
SK-MEL-28 melanoma = tested on: SK-MEL-28 melanoma
BT-549 breast = tested on: BT-549 breast
CCRF-CEM leukemia = tested on: CCRF-CEM leukemia
UO-31 renal = tested on: UO-31 renal
M14 melanoma = tested on: M14 melanoma
KM12 colon = tested on: KM12 colon
DU-145 prostate = tested on: DU-145 prostate
MOLT-4 leukemia = tested on: MOLT-4 leukemia
HCC-2998 colon = tested on: HCC-2998 colon
RPMI-8226 leukemia = tested on: RPMI-8226 leukemia
NCI-H226 lung = tested on: NCI-H226 lung
MALME-3M melanoma = tested on: MALME-3M melanoma

Measured: TGI

O=C(Nc1ccccc1)c1cc(S(=O)(=O)N2CCNC2=O)c(S)cc1Cl
> 100 µM: HOP-62 NSCLC | NCI/ADR-RES ovarian | HCT-116 colon | SN12C renal | COLO 205 colon | T-47D breast | SK-MEL-2 melanoma | IGROV1 ovarian | K-562 leukemia | MDA-N | NCI-H522 lung | MDA-MB-435 | SF-268 CNS | TK-10 renal | HCT-15 colon | RXF 393 renal | OVCAR-3 ovarian | NCI-H460 lung | UACC-257 melanoma | PC-3 prostate | SR leukemia | A498 renal | SNB-75 CNS | HL-60(TB) leukemia | UACC-62 melanoma | LOX IMVI melanoma | SF-539 CNS | SK-MEL-5 melanoma | 786-0 renal | HT29 colon | SW-620 colon | A549 NSCLC | OVCAR-8 ovarian | MDA-MB-231 breast | MCF7 breast | OVCAR-5 ovarian | ACHN renal | HOP-92 NSCLC | NCI-H23 lung | CAKI-1 renal | U251 CNS | OVCAR-4 ovarian | SNB-19 CNS | EKVX NSCLC | SK-OV-3 ovarian | HS 578T breast | SF-295 CNS | SK-MEL-28 melanoma | BT-549 breast | CCRF-CEM leukemia | UO-31 renal | M14 melanoma | KM12 colon | DU-145 prostate | MOLT-4 leukemia | HCC-2998 colon | RPMI-8226 leukemia

CC1(O)C2(c3ccccc3)CCC[N+]1(C)CC2 (stereo not drawn)
> 100 µM: HOP-62 NSCLC | NCI/ADR-RES ovarian | HCT-116 colon | SN12C renal | COLO 205 colon | T-47D breast | SK-MEL-2 melanoma | IGROV1 ovarian | K-562 leukemia | MDA-N | MDA-MB-435 | TK-10 renal | HCT-15 colon | RXF 393 renal | OVCAR-3 ovarian | NCI-H460 lung | UACC-257 melanoma | PC-3 prostate | A498 renal | SNB-75 CNS | HL-60(TB) leukemia | UACC-62 melanoma | LOX IMVI melanoma | SK-MEL-5 melanoma | HT29 colon | SW-620 colon | NCI-H226 lung | OVCAR-8 ovarian | MALME-3M melanoma | MDA-MB-231 breast | MCF7 breast | OVCAR-5 ovarian | HOP-92 NSCLC | NCI-H23 lung | CAKI-1 renal | U251 CNS | OVCAR-4 ovarian | SNB-19 CNS | SK-OV-3 ovarian | HS 578T breast | SF-295 CNS | SK-MEL-28 melanoma | BT-549 breast | CCRF-CEM leukemia | UO-31 renal | M14 melanoma | KM12 colon | DU-145 prostate | MOLT-4 leukemia | HCC-2998 colon | RPMI-8226 leukemia

From PubChem BioAssay (NCI)
